Experimental data taken from US11813257B2, “Methods of treating erythropoietic protoporphyria, X-linked protoporphyria, or congenital erythropoietic porphyria with glycine transport inhibitors” (Disc Medicine, Inc., priority 2020, dated 2023).

How the values were obtained:
Type in all cases: cell-based
K562 clone-9 cells [1] = experiment: EPP cellular model: PPIX level by flow cytometry after 96 h compound incubation; conditions: for EC50: Homo sapiens, K562 clone-9 cells, 96 hours, flow cytometry, read-out: EPP cellular model (EC50 nM), inhibition of PPIX accumulation
Description: Knockout guide sequences were designed to target Exon3 of the Ferrochelatase gene.
K562 cells were cultured in Iscove's Modified Dulbecco's Medium (IMDM) supplemented with 10% fetal bovine serum (FBS), 1% penicillin/streptomycin (PS). CRISPR Cas9 RNP complex with guide RNA was electroporated in K562 cells. Genomic DNA from the pooled cells was isolated, amplified by PCR and sequenced by Sanger sequencing to determine knockout efficiency. Single-cell clones were isolated by fluorescent-assisted cell sorting (FACS). TA cloning and Sanger sequencing were used to confirm single-cell clones and genotypes. Five clones were selected (Clone IDs are: Clone 1-7; Clone 1-9; Clone 1-10, Clone 1-32; Clone 1-51; and K562 WT) for further characterization by western blot (FIG. 1) to determine FECH protein expression levels (Antibody: FECH Antibody Rabbit Polyclonal, Proteintech, 14466-1-AP) and flow cytometry to determine the PPIX levels (FIG. 2). LC/MS/MS confirmed the accumulation of PPIX in clone 1-9 compared to WT K562 cells (FIG. 3).
(§1) 900 μL of K562 clone-9 cells at 2×10^5 cells/mL in IMDM media with 10% FBS and 1% PS were plated into a 24-well plate. After 24-hour incubation, 100 μL of compound in DMSO/media was added in different concentration. The final concentration of DMSO was 0.1%. The compound was incubated for 96 hours at 37° C. Cell viability and cell count were measured by Vi-CELL XR Complete System. Finally, the effect of the compound on PPIX level was determined by flow cytometry.

K562 clone-9 cells [2] = experiment: Cell viability and cell count by Vi-CELL XR Complete System in EPP cellular model; conditions: 96 hours, Vi-CELL XR
Description: as §1

[3] = tested on: clone 1-9 cells (EPP K562 cellular model); experiment: LC/MS/MS of 5-ALA, PPIX and heme levels in the EPP K562 cellular model
[4] = tested on: human cord blood-CD34+ cells; experiment: Human cord blood CD34+ cells transduced with FECH shRNA lentivirus, erythroid differentiation, flow cytometry; conditions: 100 nM, 9 days differentiation
Description: To investigate the effects of GlyT1 inhibitors in human hematopoietic stem cells with an EPP phenotype, lentiviral vectors expressing shRNA of FECH were constructed (Table 4) and transduced at 25 MOI into human cord blood-CD34+ cells purchased from Stemexpress.
Transduced CD34+ cells were differentiated in the presence of Bitopertin (100 nM) or DMSO control into erythroid cells for 9 days in StemSpan SFEM II media supplemented with StemSpan Erythroid Expansion Supplement. The erythroid cell antigen profile was analyzed using cytofluorimetric strategy with the following surface markers: CD71 (PE Mouse Anti-Human CD71, BD Biosciences), glycophoryin A (APC Mouse Anti-Human CD235a, BD Biosciences).

| EC50 (K562 clone-9 cells [1]) [nM] | Compound | also measured |
| --- | --- | --- |
| 0.34 | CN(CC[C@@H](Oc1ccc(-c2ccccc2)cc1)c1ccc(F)cc1)CC(=O)O [ALX-5407] |  |
| 7 | C[C@H](Oc1ccc(S(C)(=O)=O)cc1C(=O)N1CCN(c2ncc(C(F)(F)F)cc2F)CC1)C(F)(F)F [Bitopertin, bitopertin] | effect on cell viability (K562 clone-9 cells [2]): no negative effects on cell viability; 5-aminolevulinic acid (5-ALA) level [3]: decreased; Heme formation [3]: minimal effect; PPIX level [3]: decreased; effect on erythroid cell surface markers (CD71, glycophoryin A) [4]: no negative effects; reduction of PPIX accumulation ([4]; FECH shRNA transduced CD34+ cells, flow cytometry): 60% |
| 4.1 | CN(CCOc1ccc(-c2ccc3c(c2)OCO3)cc1C(C)(C)C)CC(=O)O [LY-2365109] |  |
| 5.6 | CN(CC[C@@H](Oc1ccc(C(F)(F)F)cc1)c1ccccc1)CC(=O)O [ORG-24598] |  |
| > 10000 | COc1cc(C(=O)NCC2(N(C)C)CCCC2)cc(OC)c1OCc1ccccc1 [ORG-25543] | inhibition of PPIX accumulation (in words) (K562 clone-9 cells [1]; EPP cellular model, highest tested concentration 10 μM for ORG-25543): did not show any inhibition |
| 14 | COc1ccc2c(c1)CC[C@H](CN(C)CC(=O)O)[C@@H]2c1ccccc1 [ORG-25935] |  |
| 46 | CN1C[C@@H]2[C@H](C1)[C@H]2CN(Cc1ccc(F)c(Cl)c1)C(=O)c1cn(C)cn1 [PF-03463275] |  |
| 306 | O=C(N[C@@H](c1ccccc1)[C@@H]1CCCCN1)c1cccc(C(F)(F)F)c1Cl [SSR-504734] |  |
